Test results as given in the supplement of paper PMC11451515.

Tested on: SEM cells
Test: cell viability relative to DMSO control; higher = less cytotoxic
Details: 48 h
In short: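 Viability is expressed as a percentage of DMSO wells within each plate, and cell-free wells serve as background. Seeding densities in the 1536-well plates (5 μl) were 500 cells/well for NOMO1 or SEM leukemia cells and 1000 cells/well for P12-Ichikawa. Each line was adapted for at least four passages in each medium. Library compounds in DMSO were pin-dosed at 47 μM to 0.79 nM (11 points, threefold), and CellTiter-Glo One luminescence was read after 48 h at 37°C.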

[1] = HPLM + 10% dialyzed FBS, 0.000781 µM
[2] = HPLM + 10% dialyzed FBS, 0.00234 µM
[3] = HPLM + 10% dialyzed FBS, 0.00702 µM
[4] = HPLM + 10% dialyzed FBS, 0.0211 µM
[5] = HPLM + 10% dialyzed FBS, 0.0632 µM
[6] = HPLM + 10% dialyzed FBS, 0.19 µM
[7] = HPLM + 10% dialyzed FBS, 0.569 µM
[8] = HPLM + 10% dialyzed FBS, 1.71 µM
[9] = HPLM + 10% dialyzed FBS, 5.12 µM
[10] = HPLM + 10% dialyzed FBS, 15.4 µM
[11] = HPLM + 10% dialyzed FBS, 46.1 µM
[12] = RPMI 5 mM glucose + 10% FBS, 0.000781 µM
[13] = RPMI 5 mM glucose + 10% FBS, 0.00234 µM
[14] = RPMI 5 mM glucose + 10% FBS, 0.00702 µM
[15] = RPMI 5 mM glucose + 10% FBS, 0.0211 µM
[16] = RPMI 5 mM glucose + 10% FBS, 0.0632 µM
[17] = RPMI 5 mM glucose + 10% FBS, 0.19 µM
[18] = RPMI 5 mM glucose + 10% FBS, 0.569 µM
[19] = RPMI 5 mM glucose + 10% FBS, 1.71 µM
[20] = RPMI 5 mM glucose + 10% FBS, 5.12 µM
[21] = RPMI 5 mM glucose + 10% FBS, 15.4 µM
[22] = RPMI 5 mM glucose + 10% FBS, 46.1 µM
[23] = RPMI 5 mM glucose + 10% dialyzed FBS, 0.000781 µM
[24] = RPMI 5 mM glucose + 10% dialyzed FBS, 0.00234 µM
[25] = RPMI 5 mM glucose + 10% dialyzed FBS, 0.00702 µM
[26] = RPMI 5 mM glucose + 10% dialyzed FBS, 0.0211 µM
[27] = RPMI 5 mM glucose + 10% dialyzed FBS, 0.0632 µM
[28] = RPMI 5 mM glucose + 10% dialyzed FBS, 0.19 µM
[29] = RPMI 5 mM glucose + 10% dialyzed FBS, 0.569 µM
[30] = RPMI 5 mM glucose + 10% dialyzed FBS, 1.71 µM
[31] = RPMI 5 mM glucose + 10% dialyzed FBS, 5.12 µM
[32] = RPMI 5 mM glucose + 10% dialyzed FBS, 15.4 µM
[33] = RPMI 5 mM glucose + 10% dialyzed FBS, 46.1 µM

| SMILES | cell viability [1] [%] | cell viability [2] [%] | cell viability [3] [%] | cell viability [4] [%] | cell viability [5] [%] | cell viability [6] [%] | cell viability [7] [%] | cell viability [8] [%] | cell viability [9] [%] | cell viability [10] [%] | cell viability [11] [%] | cell viability [12] [%] | cell viability [13] [%] | cell viability [14] [%] | cell viability [15] [%] | cell viability [16] [%] | cell viability [17] [%] | cell viability [18] [%] | cell viability [19] [%] | cell viability [20] [%] | cell viability [21] [%] | cell viability [22] [%] | cell viability [23] [%] | cell viability [24] [%] | cell viability [25] [%] | cell viability [26] [%] | cell viability [27] [%] | cell viability [28] [%] | cell viability [29] [%] | cell viability [30] [%] | cell viability [31] [%] | cell viability [32] [%] | cell viability [33] [%] |
| --- | --- | --- | --- | --- | --- | --- | --- | --- | --- | --- | --- | --- | --- | --- | --- | --- | --- | --- | --- | --- | --- | --- | --- | --- | --- | --- | --- | --- | --- | --- | --- | --- | --- |
| CC1=C(/C=C/C(C)=C/C=C/C(C)=C/C=C/C=C(C)/C=C/C=C(C)/C=C/C2=C(C)CCCC2(C)C)C(C)(C)CCC1 | 96.8 | 101 | 106 | 113 | 102 | 108 | 94.3 | 110 | 115 | 95.4 | 98.1 | 93.1 | 115 | 105 | 98.3 | 106 | 108 | 94.2 | 118 | 119 | 104 | 99.4 | 101 | 100 | 114 | 106 | 109 | 105 | 92.8 | 125 | 103 | 119 | 85.5 |
| N=C(CCSCc1csc(N=C(N)N)n1)N[S+](N)(=O)[O-] | 85.8 | 82.3 | 96.9 | 82.6 | 94.5 | 99 | 109 | 98.5 | 106 | 96.1 | 92.6 | 89.9 | 87.6 | 103 | 88 | 91.8 | 102 | 99.4 | 96.5 | 100 | 105 | 92.2 | 80.5 | 80.4 | 107 | 82.2 | 89 | 93.6 | 96.1 | 103 | 107 | 92.6 | 116 |
| CC/C(=C(/c1ccc(O)cc1)c1ccc(OCCNC)cc1)c1ccccc1 | 61.4 | 99.5 | 91.2 | 102 | 103 | 115 | 101 | 96.7 | 65.6 | 59.5 | 26.1 | 66.8 | 102 | 108 | 112 | 107 | 109 | 102 | 94.8 | 65.7 | 47.8 | 25.9 | 53.5 | 106 | 88.3 | 104 | 95.8 | 123 | 97.6 | 97.6 | 69.5 | 43.5 | 38 |
| CC(C)(C)c1cc(NC(=O)Nc2ccc(-c3cn4c(n3)sc3cc(OCCN5CCOCC5)ccc34)cc2)no1 | 66.8 | 53.7 | 45.8 | 44.3 | 32.2 | 38.2 | 46.6 | 30 | 30.1 | 26.1 | 27.8 | 80.9 | 61.9 | 67.7 | 49.8 | 42.1 | 46.3 | 49.3 | 38.9 | 43.4 | 33.5 | 27.8 | 74.2 | 49.4 | 51.3 | 36.6 | 30.4 | 36 | 31.3 | 33.6 | 27.5 | 23.5 | 24.6 |
| CC(C)NCC(O)COc1ccc(COCCOC(C)C)cc1 (centres undefined) | 110 | 115 | 122 | 103 | 124 | 105 | 129 | 132 | 116 | 110 | 118 | 106 | 124 | 130 | 120 | 132 | 118 | 109 | 123 | 121 | 131 | 105 | 123 | 125 | 124 | 115 | 117 | 129 | 118 | 138 | 106 | 126 | 114 |
| C[C@](O)(COc1ccc(C#N)cc1)C(=O)Nc1ccc(C#N)c(C(F)(F)F)c1 | 70.4 | 77 | 90.7 | 84.9 | 91.3 | 95.5 | 87 | 84.4 | 90.5 | 21.9 | 89.6 | 84.9 | 70.4 | 99.6 | 104 | 90.5 | 93 | 102 | 87.3 | 103 | 14.7 | 39.5 | 83 | 81.6 | 91.9 | 91.5 | 95.6 | 107 | 97.6 | 93.9 | 91 | 20.1 | 49.7 |
| CC1(C)CCC[C@]2(C)[C@H]3CC(=O)O[C@]3(C)CC[C@@H]12 | 101 | 103 | 102 | 116 | 119 | 95.2 | 116 | 118 | 115 | 101 | 93.3 | 110 | 114 | 106 | 107 | 106 | 115 | 119 | 115 | 112 | 82.2 | 100 | 114 | 106 | 116 | 126 | 104 | 112 | 121 | 111 | 119 | 79.2 | 99.1 |
| O=C([O-])C(O)Cc1ccc(O)c(O)c1 (centres undefined) | 93.4 | 111 | 93.6 | 95.6 | 96 | 81.2 | 79.2 | 76.4 | 71.2 | 74.2 | 55 | 102 | 111 | 105 | 96.8 | 107 | 96.3 | 87.3 | 76.2 | 88.5 | 75.7 | 53.4 | 93.7 | 109 | 101 | 96 | 79.8 | 96.3 | 69 | 76.8 | 60.4 | 74.5 | 50.4 |
